The subject of assay [1] is calcineurin. As to conditions: Macian 2005; cited from earlier work.
The test system of assay [2] is wild-type cultured neurons growing in TgCM. The assay can be described thus: TgCM-induced morphological abnormalities in wild-type cultured neurons. The assay is classed as cell-based, mouse.
Assay [3] has as its system Tg2576 neurons. The assay can be described thus: APP overexpression-induced morphological abnormalities in Tg cultures at 21 DIV. It counts as cell-based, mouse.
Assay [4] deals with NFATc4. The assay is described as follows: NFATc4 nuclear translocation (nucleus/cytoplasm ratio) induced by TgCM in wild-type cultured neurons. It counts as cell-based, mouse. The conditions noted are these: wild-type neurons treated with TgCM for 24 h; VIVIT 2 μM. The procedure:
Immunocytochemistry was performed as described previously in Wu et al. (2004). Briefly, after being treated under different experimental conditions, cells were fixed with 4% paraformaldehyde in PBS, pH 7.4, for 15 min and were then membrane permeabilized with 0.5% Triton X-100 in PBS for 5 min. After blocking with 3% bovine serum albumin at 37° C. for 1 h, cells were incubated with primary antibodies: anti-microtubule-associated protein 2 (MAP2) antibody (1: 200; Sigma), or anti-NFATc4 antibody (1:200; Santa Cruz Biotechnology), anti-HA antibody (1:200; Invitrogen), or anti-Flag antibody (1:200; Sigma), at 4° C. overnight. […] Nuclear NFATc4 staining was determined by overlap of NFATc4 staining with Hoechst nuclear staining. […]
Soluble plaque-associated bioactive molecules, possibly assemblies of Aβ, may be responsible for the “halo” effect of neuritic change and [Ca^2+]i alterations near plaques (Kuchibhotla et al., 2008; Meyer-Luehmann et al., 2008; Koffie et al., 2009). […] (NFATc4 and MAP2 images used for quantification of nucleus/cytoplasm ratio of NFATc4 are not shown.) To better characterize the specific role of Aβ oligomers in CaN-mediated NFATc4 activation, nondenaturing size exclusion chromatography (SEC) was used to isolate the various Aβ species from TgCM. […]

The test system of assay [5] is wild-type cultured neurons. The assay can be described thus: CaNCA overexpression-induced abnormal morphology in wild-type cultured neurons. The assay is classed as cell-based, mouse. As to conditions: for spine density: 15 DIV primary neurons transfected with wtCaN+GFP or CaNCA+GFP (DMSO or VIVIT in medium) or CaNCA+GFP+AKAP79; for GFP-positive neurons with local neuritic dystrophies: of total GFP-positive neurons. The procedure:
FIGS. 10A to 10H show wild-type cultured neurons overexpressing a constitutively active CaN construct, CaNCA, develop abnormal morphology that is a phenocopy of the AD effect. […] Wild-type cultured neurons were infected with AAV-CaNwt or AAV-CaNCA with or without AAV-flag-AKAP79 for twenty-four hours, and then the cell extracts were assayed for luciferase activity. The symbol “*” indicates a p-value of less than 0.05; Data are mean±SD (n=3 experiments each). FIGS. 10B to 10G show images and quantification results of neurodegenerative morphologies observed in wild-type cultured neurons overexpressing CaNCA or a vector. Overexpression of CaNCA, but not CaNwt or vector control, into wild-type cultures induces dendritic dystrophies (FIGS. 10B and 10C; arrows in FIG. 10B indicated local swelling of dendrites), simplification of dendritic arborization (FIGS. 10D and 10E), and spine loss (FIGS. 10F and 10G). […] The symbol “*” indicates a p-value of less than 0.05; The symbol “*” in FIG. 10E indicates a p-value of less than 0.05 (CaNwt vs CaNCA). Data are mean±SD from three independent experiments, each in triplicate. […] Neurons were transfected at 10DIV and analyzed at 14DIV. A decreased spines density spines is observed when CaCA is overexpressed (15.2±1.1) compared with wtCaN (25.9±2.1). This effect was blocked by cotransfection with AKAP79 (25.6±1.0) or by the addition of VIVIT (SEQ ID NO: 7) in the medium (22±1.7). The symbol “**” indicates a p-value of less than 0.001 (ANOVA) and less than 0.05 (post-hoc Student's test). n≧15.
(§1) To examine whether CaN activation is sufficient to cause these morphologic changes, even in the absence of overexpressed APP or exogenously applied Aβ, it was sought to investigate whether the expression of a constitutively-active CaN (CaNCA) can favor morphological changes in wild-type cultured neurons. An AAV vector encoding an HA-tagged CaNCA (AAV-CaNCA) or wild-type CaN (AAV-CaNwt) or an AAV vector control was expressed in cortical cultures. […] Neurons with swollen dendrites were barely detectable in CaNwt-overexpressing cultures, but they were prominently detected in CaNCA-overexpressing cultures (FIG. 10B). […] The latter is similar to the number of dystrophic neurites found in cultures expressing β-galactosidase, an AAV-vector control. Dendritic complexity (FIGS. 10D and 10E) and mean spine density (FIGS. 10F and 100) were reduced in neurons overexpressing CaNCA but not in CaNwt- or vector-overexpressing neurons.

The test system of assay [6] is NFAT. The conditions noted are these: in vitro; Macian 2005; cited from earlier work.
For assay [7], the system named is wild-type neurons. The assay can be described thus: Baseline maturation of wild-type neurons. The assay is classed as cell-based, mouse. As to conditions: VIVIT 2 μM or DMSO. The source says: The findings presented herein indicate that nuclear accumulation of NFATc4 occurs in neurons from Tg cultures and in human AD postmortem brain and that Aβ-containing CM from Tg culture is capable of inducing CaN-mediated NFATc4 nuclear localization in wild-type neurons. […] Thus, inhibition of CaN-NFAT interaction and subsequent NFAT nuclear accumulation by VIVIT (SEQ ID NO: 7) blocks TgCM or APP overexpression-induced morphological abnormalities in culture.

The test system of assay [8] is C57BL/6J mice. The assay can be described thus: Neuronal morphology in intact brain of C57BL/6J mice after intracranial AAV injection. It counts as in vivo, mouse. The conditions noted are these: live multiphoton imaging, compared with control vector. The method, then: Intracortical injections and surgery were performed as described previously (Spires et al., 2005; Kuchibhotla et al., 2008; Meyer-Luehmann et al., 2008). Briefly, mice were anesthetized with ketamine (10 mg/kg) and xylazine (1 mg/kg) and placed in a stereotaxic apparatus. The surgical site was sterilized with betadyne and isopropyl alcohol, and a 2-3 mm incision was made in the scalp along the midline between the ears. Burr holes were drilled in the skull, 0.5 mm posterior from bregma, and 0.5 mm lateral to the midsagittal line. Using a Hamilton syringe, 3 μl of virus (titer, 4.2×10^12 viral genomes/ml) was injected 1.2 mm deep in somatosensory cortex at a rate of 0.25 μl/min. After one injection in each burr hole, the scalp was sutured, and the mouse recovered from anesthesia on a heating pad.
Images of GFP-filled neuronal processes and, in the case of APP/PS1 mice, amyloid pathology, and blood vessels were obtained using a Bio-Rad 1024ES multiphoton microscope (Bio-Rad), mounted on an Olympus Optical BX50WI upright microscope. […] A mode-locked titanium/sapphire laser (MaiTai; Spectra Physics) generated two-photon fluorescence with 800 nm excitation, and detectors containing three photomultiplier tubes (Hamamatsu) collected emitted light in the range of 380-480, 500-540, and 560-650 nm (Bacskai et al., 2003). […]

In assay [9] the test system is NFAT. The assay is described as follows: NFAT luciferase reporter assay in cultured neurons. It counts as cell-based, mouse. The conditions noted are these: neurons overexpressing CaNCA, with or without AAV-flag-AKAP79, 24 h. The procedure: Luciferase reporter assay. CaNwt, CaNCA, or NFAT-TA-Luc (Clontech) was subcloned into AAV serotype 2 vector. These plasmids (1 μg) were used […] at 3 DIV. After 24 h, the cells were harvested and luciferase activities were measured with a luminometer using a reagent kit (Luciferase Assay System with Reporter Lysis Buffer; Promega). The background luciferase activity was subtracted from all experiments.
as §1
For orientation: A reporter such as luciferase makes a cellular process visible.

The mark [10] stands for this setting: wild-type neurons growing in TgCM, VIVIT 2 μM.
[11] abbreviates: Tg cultures at 21 DIV, compared with wild type.

Ends that are not written are not given here.

As for “VIVIT: cell-permeable VIVIT peptide that blocks the docking sites for CaN-NFAT interaction (catalog #480401; Calbiochem) (also: 11R cell-penetrating tag, position and linkage not given here)”, in [1], the “competition for calcineurin binding” value is on record as “compete with NFAT proteins for calcineurin binding”. Moreover, the spine density entry in [2] (primary neurons treated with TgCM for 24 h, 1 μM FK506, 2 μM VIVIT or AKAP79 transfection (FIG. 8I)) was “restored”. For the same substance, in [2] (setting [10]), the “dendritic complexity (Sholl analysis)” value is on record as “increased dendritic complexity”, the dendritic spine density result was “increased” and the “number of neurons with dendritic dystrophies” value is given as “reduced numbers of neurons with dendritic dystrophies”. For the same substance, in assay [3] (setting [11]), the “dendritic complexity / dendritic attenuation” value is given as “prevented”, the “mean spine density / spine loss” value is “prevented” and the “number of neurons with dendritic dystrophies” value is given as “prevented”. The “overall morphology during maturation” value in assay [3] (Tg neurons, treatment from 3 DIV (3D6, AKAP79) or VIVIT vs DMSO) is “dramatically improved morphology”. Besides, the “nucleus/cytoplasm ratio of NFATc4” value in [4] was “abolished”. In addition, the spine density in assay [5] is on record as 22±1.7. The “CaNCA overexpression-induced dendritic spine loss” value in assay [5] (wild-type cultured neurons overexpressing CaNCA) is “virtually eliminate”. For the same substance, in assay [6], the NFAT dephosphorylation entry is listed as “block NFAT dephosphorylation”. In assay [7], the “number of neurons with dendritic dystrophies, dendritic processes and spine density” value is “No significant changes”.

In the case of “CaNwt: wild type mouse CaN expressed from an AAV vector”, the spine density result in [8] is listed as “comparable with control vector-injected mice”. Moreover, in assay [5], the spine density amounted to 25.9±2.1 and the “GFP-positive neurons with local neuritic dystrophies” value was determined as 6%.

With “CaNCA: constitutively active truncated 45 kDa form of mouse CaN (amino acid residues 1-399), expressed from an AAV vector”, the spine density result in assay [8] is “significantly decreased”. For the same substance, in assay [5], the spine density is reported as 15.2±1.1 and the “GFP-positive neurons with local neuritic dystrophies” value is “Approximately 15%”. Further, the NFAT-luciferase activity result in [9] was “significantly increased”.
